Source: US20180200257A1, “METHODS FOR THE TREATMENT OF INFLAMMATORY DISORDERS” (Galapagos NV, priority 2015, published 2018)

Experiments:
[1] = system: Subjects With Active Crohn's Disease With Evidence of Mucosal Ulceration; assay: Study 3 - Creatinine levels; assay type: in vivo, human; conditions: for Study 3 - Creatinine Mean CFB / Study 3 - Creatinine Mean percentage CFB: 10 weeks results, 200 mg q.d.
Description: Double-Blind, Randomized, Placebo-Controlled, Multi-Centre Study to Investigate the Efficacy and Safety of Compound 1 in Subjects With Active Crohn's Disease With Evidence of Mucosal Ulceration. This is a double-blind, randomized, placebo-controlled, multi-centre Phase 2 study to investigate the efficacy and safety of Compound 1 administered once daily for the treatment of active CD with evidence of mucosal ulceration. The pharmacokinetics (including a PK substudy) and pharmacodynamics of Compound 1 and metabolite in CD will also be characterised. A total of 180 eligible subjects will be randomized to receive Compound 1 or placebo in addition to their stable background treatment (eg, corticosteroids, aminosalicylates, or CD-related antibiotics). The study will consist of 2 parts, with total treatment duration of 20 weeks. Randomization in Part 1 will be stratified according the subject's previous anti-TNF exposure/response, CRP level at Screening, and oral corticosteroid use at visit Day −1. After the first 10 weeks of treatment in Part 1, patients will be re-randomized for Part 2 as shown in the diagram below and will be stratified according to the subject's clinical response, previous anti-TNF exposure/response, and oral corticosteroid use at visit Day -1. [table] Creatinine levels determination is available at Quest Diagnostics, Clinical Trials, Quest House, 125-135 Staines Road, Hounslow, Middlesex, TW3 3JB, United Kingdom under Catalogue n# 82565. For Study 3, the data are obtained at BARC Europe, 3B,Industrie Park, Zwijnaarde, B-9052 Ghent, Belgium. The Enzymatic method is based on the determination of sarcosine after conversion of creatinine with the aid of creatininase, creatinase, and sarcosine oxidase. The liberated hydrogen peroxide reacts with 4-aminophenazone and HTIB to form a quinone imine chromogen. The reaction is catalyzed by peroxidase. The color intensity is directly proportional to concentration of creatinine present and can be measured photometrically.

[2] = system: Subjects With Active Crohn's Disease With Evidence of Mucosal Ulceration; assay: Study 3 - CDAI component PRO2 score; assay type: in vivo, human; conditions: 200 mg
Description: Double-Blind, Randomized, Placebo-Controlled, Multi-Centre Study to Investigate the Efficacy and Safety of Compound 1 in Subjects With Active Crohn's Disease With Evidence of Mucosal Ulceration. This is a double-blind, randomized, placebo-controlled, multi-centre Phase 2 study to investigate the efficacy and safety of Compound 1 administered once daily for the treatment of active CD with evidence of mucosal ulceration. The pharmacokinetics (including a PK substudy) and pharmacodynamics of Compound 1 and metabolite in CD will also be characterised. A total of 180 eligible subjects will be randomized to receive Compound 1 or placebo in addition to their stable background treatment (eg, corticosteroids, aminosalicylates, or CD-related antibiotics). The study will consist of 2 parts, with total treatment duration of 20 weeks. Randomization in Part 1 will be stratified according the subject's previous anti-TNF exposure/response, CRP level at Screening, and oral corticosteroid use at visit Day −1. After the first 10 weeks of treatment in Part 1, patients will be re-randomized for Part 2 as shown in the diagram below and will be stratified according to the subject's clinical response, previous anti-TNF exposure/response, and oral corticosteroid use at visit Day -1. [table] Within the CDAI score measurement parameters, the PRO2 score, based on the stool frequency (SF) and abdominal pain (AP) components of the CDAI, was also measured. The PRO2 score is calculated as follows: PRO2=7 x (mean daily number of liquid or very soft stools)+7×(mean daily abdominal pain score). This score provides a measurement of the symptoms improvement of the patient.

[3] = 200 mg q.d. continued to week 20 (N = 77), week 0
[4] = 200 mg q.d. continued to week 20 (N = 77), week 2
[5] = 200 mg q.d. continued to week 20 (N = 77), week 4
[6] = 200 mg q.d. continued to week 20 (N = 77), week 6
[7] = 200 mg q.d. continued to week 20 (N = 77), week 10
[8] = 200 mg q.d. continued to week 20 (N = 77), week 12
[9] = 200 mg q.d. continued to week 20 (N = 77), week 16
[10] = 200 mg q.d. continued to week 20 (N = 77), week 20
[11] = 200 mg q.d. week 0 to 10, to 100 mg q.d. week 10 to 20 (N = 30), week 0
[12] = 200 mg q.d. week 0 to 10, to 100 mg q.d. week 10 to 20 (N = 30), week 2
[13] = 200 mg q.d. week 0 to 10, to 100 mg q.d. week 10 to 20 (N = 30), week 4
[14] = 200 mg q.d. week 0 to 10, to 100 mg q.d. week 10 to 20 (N = 30), week 6
[15] = 200 mg q.d. week 0 to 10, to 100 mg q.d. week 10 to 20 (N = 30), week 10
[16] = 200 mg q.d. week 0 to 10, to 100 mg q.d. week 10 to 20 (N = 30), week 12
[17] = 200 mg q.d. week 0 to 10, to 100 mg q.d. week 10 to 20 (N = 30), week 16
[18] = 200 mg q.d. week 0 to 10, to 100 mg q.d. week 10 to 20 (N = 30), week 20
[19] = 200 mg q.d. week 0 to 10, to placebo week 10 to 20 (N = 23), week 0
[20] = 200 mg q.d. week 0 to 10, to placebo week 10 to 20 (N = 23), week 2
[21] = 200 mg q.d. week 0 to 10, to placebo week 10 to 20 (N = 23), week 4
[22] = 200 mg q.d. week 0 to 10, to placebo week 10 to 20 (N = 23), week 6
[23] = 200 mg q.d. week 0 to 10, to placebo week 10 to 20 (N = 23), week 10
[24] = 200 mg q.d. week 0 to 10, to placebo week 10 to 20 (N = 23), week 12
[25] = 200 mg q.d. week 0 to 10, to placebo week 10 to 20 (N = 23), week 16
[26] = 200 mg q.d. week 0 to 10, to placebo week 10 to 20 (N = 23), week 20
[27] = placebo week 0 to 10, to 100 mg q.d. week 10 to 20 (N = 22), week 12
[28] = placebo week 0 to 10, to 100 mg q.d. week 10 to 20 (N = 22), week 16
[29] = placebo week 0 to 10, to 100 mg q.d. week 10 to 20 (N = 22), week 20

Which “Creatinine Mean CFB” value [1, 3] does the source give for O=C(Nc1nc2cccc(-c3ccc(CN4CCS(=O)(=O)CC4)cc3)n2n1)C1CC1 [Compound 1, cyclopropanecarboxylic acid {5-[4-(1,1-dioxo-thiomorpholin-4-ylmethyl)-phenyl]-[1,2,4]triazolo[1,5-a]pyridin-2-yl}-amide] here?
Its value is 0.0 µmol/L.

And the “Creatinine Mean percentage CFB” value [1, 3]?
The value was 0.0%.

What about the “Creatinine Mean CFB” value [1, 4] of the same compound?
The value was 2.22 µmol/L.

What about the “Creatinine Mean percentage CFB” value [1, 4] of the same compound?
Its value is 4.13%.

And the “Creatinine Mean CFB” value [1, 5]?
Its value is 3.93 µmol/L.

And the “Creatinine Mean percentage CFB” value [1, 5]?
The value was 6.08%.

What about the “Creatinine Mean CFB” value [1, 6] of the same compound?
Its value is 2.51 µmol/L.

What about the “Creatinine Mean percentage CFB” value [1, 6] of the same compound?
The value was 4.44%.

What about the “Creatinine Mean CFB” value [1, 7] of the same compound?
Its value is 6.00 µmol/L.

What about the “Creatinine Mean percentage CFB” value [1, 7] of the same compound?
The value was 9.34%.

And the “Creatinine Mean CFB” value [1, 8]?
Its value is 4.02 µmol/L.

What about the “Creatinine Mean percentage CFB” value [1, 8] of the same compound?
Its value is 7.10%.

What about the “Creatinine Mean CFB” value [1, 9] of the same compound?
Its value is 1.81 µmol/L.

And the “Creatinine Mean percentage CFB” value [1, 9]?
Its value is 3.62%.

What about the “Creatinine Mean CFB” value [1, 10] of the same compound?
The value was 3.20 µmol/L.

What about the “Creatinine Mean percentage CFB” value [1, 10] of the same compound?
The value was 5.43%.

And the “Creatinine Mean CFB” value [1, 11]?
The value was 0.0 µmol/L.

And the “Creatinine Mean percentage CFB” value [1, 11]?
The value was 0.0%.

What about the “Creatinine Mean CFB” value [1, 12] of the same compound?
The value was 3.36 µmol/L.

And the “Creatinine Mean percentage CFB” value [1, 12]?
Its value is 5.77%.

What about the “Creatinine Mean CFB” value [1, 13] of the same compound?
Its value is 4.98 µmol/L.

And the “Creatinine Mean percentage CFB” value [1, 13]?
Its value is 8.03%.

And the “Creatinine Mean CFB” value [1, 14]?
Its value is 4.00 µmol/L.

And the “Creatinine Mean percentage CFB” value [1, 14]?
Its value is 6.37%.

What about the “Creatinine Mean CFB” value [1, 15] of the same compound?
Its value is 6.48 µmol/L.

And the “Creatinine Mean percentage CFB” value [1, 15]?
The value was 11.55%.

What about the “Creatinine Mean CFB” value [1, 16] of the same compound?
Its value is 2.92 µmol/L.

And the “Creatinine Mean percentage CFB” value [1, 16]?
Its value is 6.01%.

And the “Creatinine Mean CFB” value [1, 17]?
The value was 4.89 µmol/L.

And the “Creatinine Mean percentage CFB” value [1, 17]?
Its value is 8.86%.

And the “Creatinine Mean CFB” value [1, 18]?
The value was 3.43 µmol/L.

And the “Creatinine Mean percentage CFB” value [1, 18]?
The value was 6.19%.

And the “Creatinine Mean CFB” value [1, 19]?
Its value is 0.0 µmol/L.

And the “Creatinine Mean percentage CFB” value [1, 19]?
The value was 0.0%.

And the “Creatinine Mean CFB” value [1, 20]?
Its value is 1.95 µmol/L.

What about the “Creatinine Mean percentage CFB” value [1, 20] of the same compound?
Its value is 3.55%.

What about the “Creatinine Mean CFB” value [1, 21] of the same compound?
The value was 3.83 µmol/L.

And the “Creatinine Mean percentage CFB” value [1, 21]?
Its value is 6.09%.

And the “Creatinine Mean CFB” value [1, 22]?
The value was 2.15 µmol/L.

And the “Creatinine Mean percentage CFB” value [1, 22]?
The value was 3.92%.

What about the “Creatinine Mean CFB” value [1, 23] of the same compound?
Its value is 5.88 µmol/L.

And the “Creatinine Mean percentage CFB” value [1, 23]?
Its value is 10.23%.

And the “Creatinine Mean CFB” value [1, 24]?
The value was 1.84 µmol/L.

What about the “Creatinine Mean percentage CFB” value [1, 24] of the same compound?
Its value is 3.14%.

And the “Creatinine Mean CFB” value [1, 25]?
Its value is 0.47 µmol/L.

What about the “Creatinine Mean percentage CFB” value [1, 25] of the same compound?
The value was 1.93%.

What about the “Creatinine Mean CFB” value [1, 26] of the same compound?
Its value is -0.26 µmol/L.

What about the “Creatinine Mean percentage CFB” value [1, 26] of the same compound?
The value was 0.68%.

And the Study 3 - Creatinine Mean CFB ([1]; week 2)?
Its Study 3 - Creatinine Mean CFB is 2.44 µM.

And the “Study 3 - Creatinine Mean percentage CFB” value ([1]; week 2)?
Its value is 4.41%.

And the Study 3 - Creatinine Mean CFB ([1]; week 4)?
Its Study 3 - Creatinine Mean CFB is 4.16 µM.

And the “Study 3 - Creatinine Mean percentage CFB” value ([1]; week 4)?
The value was 6.55%.

What about the Study 3 - Creatinine Mean CFB ([1]; week 6) of the same compound?
The Study 3 - Creatinine Mean CFB was 2.81 µM.

What about the “Study 3 - Creatinine Mean percentage CFB” value ([1]; week 6) of the same compound?
The value was 4.82%.

And the Study 3 - Creatinine Mean CFB ([1]; week 10)?
Its Study 3 - Creatinine Mean CFB is 6.08 µM.

And the “Study 3 - Creatinine Mean percentage CFB” value ([1]; week 10)?
Its value is 10.05%.

What about the “Creatinine Mean CFB” value [1, 27] of the same compound?
Its value is 3.09 µmol/L.

What about the “Creatinine Mean percentage CFB” value [1, 27] of the same compound?
The value was 4.87%.

And the “Creatinine Mean CFB” value [1, 28]?
Its value is 4.33 µmol/L.

What about the “Creatinine Mean percentage CFB” value [1, 28] of the same compound?
The value was 6.52%.

And the “Creatinine Mean CFB” value [1, 29]?
The value was 3.11 µmol/L.

What about the “Creatinine Mean percentage CFB” value [1, 29] of the same compound?
The value was 4.31%.

What about the “PRO2 mean, baseline” value ([2]; Baseline, LOCF) of the same compound?
Its value is 52.4.

What about the “PRO2 mean CFB, W 10” value ([2]; week 10, LOCF) of the same compound?
The value was −21.9.

And the “PRO2 remission (PRO2 ≤ 28)” value ([2]; week 10, LOCF)?
Its value is 55%.

And the “PRO2 response (mean daily number of liquid or very soft stools ≤ 3, mean daily abdominal pain ≤ 1)” value ([2]; week 10, LOCF)?
Its value is 38%.

And the “PRO2 remission (PRO2 ≤ 28)” value ([2]; week 10, NRI)?
The value was 50%.

What about the “PRO2 response (mean daily number of liquid or very soft stools ≤ 3, mean daily abdominal pain ≤ 1)” value ([2]; week 10, NRI) of the same compound?
The value was 34%.
